Results taken from patent US20200178586A1, “PEPTIDE” (FUJI OIL HOLDINGS INC., priority 2017, published 2020).
Entries after “also recorded” stand apart in the source; their conditions may differ. Marks after values point to notes of the source that are not given here. *1 amine or outer side, *2 acyl side, *3 side chain or, on linkers, in order; H or OH if unused. Where no end group is shown, it is not given here. [ ]: non-standard residue; d: D form. γGlu = O=C(O)[C@H](CCC(=O)[*:2])N[*:1]

Legend:
[1] = Sensory evaluation of body taste-imparting effect of γ-glutamyl peptides in umami solution and sweet taste solution (Example 2); conditions: for Initial-middle taste / Middle-after taste: average score of 7 trained panelists, 5 levels, control = 3 points; for body taste of from the initial taste to middle taste (in words) / persistence of the aftertaste (in words) / taste from the middle taste to aftertaste (in words): umami and sweet taste solutions, summary of Table 1
Method: Umami solution containing 0.7% MSG-0.4% NaCl and Sweet taste solution containing 6% sucrose were used as controls (3 points). And, sample solution was prepared by adding each γ-glutamyl peptide to the control. As comparative controls, γ-Glu-Val-Gly disclosed in Patent Document 1 and Patent Document 6 were used. The panelists were 7 trained panelists at Fuji Oil Holdings Inc. And, the panelist evaluated a body taste of from initial taste to middle taste, a thickness of from middle taste to aftertaste, and persistence with the following five levels.
(§1) 5 points: feels much stronger than the control 4 points: feels stronger than the control 3 points: feels the same as the control 2 points: feels a little weaker than the control 1 point: feels much weaker than the control

[2] = Sensory evaluation of body taste-imparting effect on sweet taste solution (Example 3); conditions: Sweet taste solution (6% sucrose), 100 ppm peptide; for Initial-middle taste: average score of eight trained panelists, 5 levels, control = 3 points; for body taste-imparting effect (in words): summary of FIG. 3 and Table 2
Method: Sweet taste solution containing 6% sucrose was used as a control (3 points). And, sample solution was prepared by adding 100 ppm of each γ-glutamyl tripeptide to the control. As comparative controls, γ-Glu-γ-Glu-Val and γ-Glu-γ-Glu-α-Glu-Tyr were used. The panelists were eight trained panelists at Fuji Oil Holdings Inc. And, the panelist evaluated a body taste of from initial taste to middle taste with the following five levels.
as §1

[3] = Sweet taste solution (6% sucrose)
[4] = Umami solution (0.7% MSG-0.4% NaCl)

Substance | Initial-middle taste [2] | body taste-imparting effect (in words) [2] | other results
[γGlu]-Tyr [reference compound] | – | – | Initial-middle taste [1, 3]: 3.5 points; Middle-after taste [1, 3]: 3.9* points; Initial-middle taste [1, 4]: 3.5 points; Middle-after taste [1, 4]: 3.9* points; body taste of from the initial taste to middle taste (in words) [1]: imparted little body taste; persistence of the aftertaste (in words) [1]: persistent of the strong aftertaste; taste from the middle taste to aftertaste (in words) [1]: strong
[γGlu]-Val-Gly [reference compound] | – | – | Initial-middle taste [1, 3]: 3.6 points; Middle-after taste [1, 3]: 4.3* points; Initial-middle taste [1, 4]: 3.6 points; Middle-after taste [1, 4]: 4.8* points; body taste of from the initial taste to middle taste (in words) [1]: imparted little body taste; persistence of the aftertaste (in words) [1]: persistent of the strong aftertaste; taste from the middle taste to aftertaste (in words) [1]: strong
[γGlu]-[γGlu]-Tyr | – | – | Initial-middle taste [1, 3]: 4.0* points; Middle-after taste [1, 3]: 3.7* points; Initial-middle taste [1, 4]: 4.0* points; Middle-after taste [1, 4]: 3.9* points; body taste of from the initial taste to middle taste (in words) [1]: imparted the body taste overall; persistence of the aftertaste (in words) [1]: suppressed
[γGlu]-[γGlu]-Val | 3.1 points | – | –
[γGlu][γGlu]EY | 3.4 points | an effect was also observed | –
[γGlu][γGlu][γGlu]A | 3.4 points | particularly effective | –
[γGlu][γGlu][γGlu]C | 3.0 points | – | –
[γGlu][γGlu][γGlu]D | 3.4 points | particularly effective | –
[γGlu][γGlu][γGlu]E | 3.5* points | particularly effective | –
[γGlu][γGlu][γGlu]F | 3.4 points | particularly effective | –
[γGlu][γGlu][γGlu]G | 3.1 points | – | –
[γGlu][γGlu][γGlu]H | 3.5* points | particularly effective | –
[γGlu][γGlu][γGlu]I | 3.4 points | particularly effective | –
[γGlu][γGlu][γGlu]K | 3.1 points | – | –
[γGlu][γGlu][γGlu]L | 3.3 points | particularly effective | –
[γGlu][γGlu][γGlu]M | 3.0 points | – | –
[γGlu][γGlu][γGlu]N | 3.3 points | – | –
[γGlu][γGlu][γGlu]P | 3.1 points | – | –
[γGlu][γGlu][γGlu]Q | 3.3 points | – | –
[γGlu][γGlu][γGlu]R | 4.1** points | particularly effective | –
[γGlu][γGlu][γGlu]S | 3.4 points | particularly effective | –
[γGlu][γGlu][γGlu]T | 2.9 points | – | –
[γGlu][γGlu][γGlu]V | 3.4 points | particularly effective; also recorded: superior to γ-Glu-γ-Glu-Val | –
[γGlu][γGlu][γGlu]W | 3.1 points | – | –
[γGlu][γGlu][γGlu]Y | 4.3** points | particularly effective | Initial-middle taste [1, 3]: 4.3* points; Middle-after taste [1, 3]: 4.3* points; Initial-middle taste [1, 4]: 4.1* points; Middle-after taste [1, 4]: 4.0* points; body taste of from the initial taste to middle taste (in words) [1]: imparted the body taste overall; persistence of the aftertaste (in words) [1]: suppressed
[γGlu][γGlu][γGlu][γGlu]Y | – | – | Initial-middle taste [1, 3]: 3.9* points; Middle-after taste [1, 3]: 3.6 points; Initial-middle taste [1, 4]: 3.9* points; Middle-after taste [1, 4]: 3.7 points; body taste of from the initial taste to middle taste (in words) [1]: sufficiently imparted a body taste
